The results in this text go back to publication PMC4058678 (The Biochemical journal, 2009).

Like-named read-outs stand apart in the source and are kept apart here.

In assay [1] the target is T1, myeloperoxidase (MPO) (Homo sapiens, UniProt P05164). As to the kind of experiment: HOCl production by isolated MPO-H2O2-Cl− system. The assay is classed as biochemical.
Assay [2] deals with T1, myeloperoxidase (MPO). Description: HOCl production by isolated MPO-H2O2-Cl− system. The assay is classed as biochemical. The source holds these as a separate data set.

T1 sequence (P05164 165-273): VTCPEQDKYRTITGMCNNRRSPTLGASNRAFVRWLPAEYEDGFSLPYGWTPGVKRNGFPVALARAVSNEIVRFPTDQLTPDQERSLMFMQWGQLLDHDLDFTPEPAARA
T1 sequence (P05164 279-745): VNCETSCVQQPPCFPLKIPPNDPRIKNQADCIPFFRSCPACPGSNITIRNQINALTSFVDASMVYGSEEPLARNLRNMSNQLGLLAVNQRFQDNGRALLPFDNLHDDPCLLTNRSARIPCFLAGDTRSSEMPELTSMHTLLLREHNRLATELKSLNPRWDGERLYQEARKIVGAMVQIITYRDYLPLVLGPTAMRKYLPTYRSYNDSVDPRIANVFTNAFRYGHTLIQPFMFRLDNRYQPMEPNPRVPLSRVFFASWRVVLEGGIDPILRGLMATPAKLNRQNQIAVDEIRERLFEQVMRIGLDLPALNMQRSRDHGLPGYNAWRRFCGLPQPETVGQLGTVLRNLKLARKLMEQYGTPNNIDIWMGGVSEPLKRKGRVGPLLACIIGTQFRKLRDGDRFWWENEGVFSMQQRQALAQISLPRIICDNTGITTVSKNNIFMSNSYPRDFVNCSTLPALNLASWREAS

As for `CC1(C)CC(N)CC(C)(C)N1[O]` [4-AminoTEMPO, 4-amino-2,2,6,6-tetramethylpiperidin-1-yloxyl], at myeloperoxidase (MPO) [1], half-maximal inhibition (IC50) required 1200 nM.
Compound `CC1(C)CC(N)C(C)(C)N1[O]` (centres unmarked) [3-AminoPROXYL, 3-amino-2,2,5,5-tetramethylpyrrolidin-1-yloxyl] gave an IC50 on myeloperoxidase (MPO) [2] of 2700 nM.

For orientation: IC50 means the concentration needed to halve the response being measured.
